Experimental data from patent US12565501B2, “Muscarinic acetylcholine M1 receptor antagonists” (Contineum Therapeutics, Inc., priority 2019, dated 2026).

Molecular target: T1, human M1 receptor (Homo sapiens, UniProt P11229)
T1 sequence (P11229 1-460): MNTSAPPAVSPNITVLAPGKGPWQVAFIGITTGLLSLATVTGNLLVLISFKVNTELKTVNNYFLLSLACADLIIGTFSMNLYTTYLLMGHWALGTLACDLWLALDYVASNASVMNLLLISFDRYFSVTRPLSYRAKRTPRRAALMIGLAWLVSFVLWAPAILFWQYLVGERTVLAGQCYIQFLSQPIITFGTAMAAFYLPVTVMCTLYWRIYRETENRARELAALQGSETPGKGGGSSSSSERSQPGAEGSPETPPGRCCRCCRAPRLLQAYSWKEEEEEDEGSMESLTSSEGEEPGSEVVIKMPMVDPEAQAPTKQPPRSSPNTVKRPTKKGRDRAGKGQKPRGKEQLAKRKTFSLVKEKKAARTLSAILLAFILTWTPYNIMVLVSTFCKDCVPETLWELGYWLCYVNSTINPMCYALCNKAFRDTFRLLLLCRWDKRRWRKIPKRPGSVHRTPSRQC
Test: In vitro functional assay of muscarinic acetylcholine receptor activity (aequorin calcium flux, reversal of EC80 acetylcholine response)
Type: cell-based
Conditions: CHO-K1 cells stably expressing human M1 receptor with aequorin; acetylcholine at EC80; calcium flux (luminescence); read-out: M1 IC50
Summary of the method: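 CHO-K1 cells expressing human M1 and aequorin, loaded with 5 μM coelenterazine for 4 h, preincubated with compound 30 min at room temperature, then challenged with EC80 acetylcholine.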

Q: With `N#Cc1ccc(N2C3CCC2CN(C(=O)COC2(c4ccc(F)c(C#N)c4)CC2)C3)nc1` [Example 291, 6-(3-(2-(1-(3-cyano-4-fluorophenyl)cyclopropoxy)acetyl)-3,8-diazabicyclo[3.2.1]octan-8-yl)nicotinonitrile] as the compound, how does the IC50 read?
A: 100 to 1000 nM

Q: With `COc1cc(C2(/C=C/C(=O)N3CC4CCC(C3)N4c3ccc(C#N)cn3)CCC2)ccn1` [Example 151, 6-(3-((E)-3-(1-(2-methoxypyridin-4-yl)cyclobutyl)acryloyl)-3,8-diazabicyclo[3.2.1]octan-8-yl)nicotinonitrile] as the compound, how does the IC50 read?
A: < 10 nM

Q: How did the IC50 turn out when `N#Cc1ccc(N2C3CCC2CN(C(=O)CNC2(c4cc(F)cc(F)c4)CC2)C3)nc1` [Example 107, 6-(3-((1-(3,5-difluorophenyl)cyclopropyl)glycyl)-3,8-diazabicyclo[3.2.1]octan-8-yl)nicotinonitrile] was run?
A: 10 to 100 nM

Q: For `COc1cc([C@H](C)NCCC(=O)N2C[C@H]3CC[C@@H](C2)N3c2ccc(C#N)cn2)ccn1` [Example 22, 6-(3-(3-(((S)-1-(2-methoxypyridin-4-yl)ethyl)amino)propanoyl)-3,8-diazabicyclo[3.2.1]octan-8-yl)nicotinonitrile], which IC50 is on record?
A: 1000 to 10000 nM

Q: With `COc1cccc(C2(OCC(=O)N3CC4CCC(C3)N4c3ccc(C#N)cn3)CCC2)c1` [Example 237, 6-(3-(2-(1-(3-methoxyphenyl)cyclobutoxy)acetyl)-3,8-diazabicyclo[3.2.1]octan-8-yl)nicotinonitrile] as the compound, how does the IC50 read?
A: < 10 nM

Q: `COc1cccc(C2(NCC(=O)N3CC4CCC(C3)N4c3ccc(C#N)cn3)CCC2)c1` [Example 114, 6-(3-((1-(3-methoxyphenyl)cyclobutyl)glycyl)-3,8-diazabicyclo[3.2.1]octan-8-yl)nicotinonitrile] was tested. Which IC50 did it give?
A: < 10 nM

Q: For `N#Cc1ccc(N2C3CCC2CN(C(=O)COC2(c4ccncc4F)CC2)C3)nc1` [Example 228, 6-(3-(2-(1-(3-fluoropyridin-4-yl)cyclopropoxy)acetyl)-3,8-diazabicyclo[3.2.1]octan-8-yl)nicotinonitrile], which IC50 is on record?
A: 10 to 100 nM

Q: Which IC50 does the source give for `N#Cc1ccc(N2C3CCC2CN(C(=O)/C=C/C(F)(F)c2cccc4ncnn24)C3)nc1` [Example 148, 6-(-3-((E)-4-([1,2,4]triazolo[1,5-a]pyridin-5-yl)-4,4-difluorobut-2-enoyl)-3,8-diazabicyclo[3.2.1]octan-8-yl)nicotinonitrile] here?
A: < 10 nM

Q: With `N#Cc1ccc(N2C3CCC2CN(C(=O)COCC(F)(F)c2cccn4ncnc24)C3)nc1` [Example 278, 6-(3-(2-(2-([1,2,4]triazolo[1,5-a]pyridin-8-yl)-2,2-difluoroethoxy)acetyl)-3,8-diazabicyclo[3.2.1]octan-8-yl)nicotinonitrile] as the compound, how does the IC50 read?
A: < 10 nM

Q: With `N#Cc1ccc(N2C3CCC2CN(C(=O)CNC2(c4ccccc4)CC2)C3)nc1` [Example 94, 6-(3-((1-phenylcyclopropyl)glycyl)-3,8-diazabicyclo[3.2.1]octan-8-yl)nicotinonitrile] as the compound, how does the IC50 read?
A: 1000 to 10000 nM

Q: `C[C@H](NCC(=O)N1C[C@H]2CC[C@@H](C1)N2c1ccc(C#N)cn1)c1cccc2c1OC(F)(F)O2` [Example 68, 6-(3-(((S)-1-(2,2-difluorobcnzo[d][1,3]dioxol-4-yl)ethyl)glycyl)-3,8-diazabicyclo[3.2.1]octan-8-yl)nicotinonitrile] was tested. Which IC50 did it give?
A: < 10 nM

Q: How did the IC50 turn out when `N#Cc1ccc(N2[C@@H]3CC[C@H]2CN(C(=O)CCNC2(c4ccccc4)CC2)C3)nc1` [Example 2, 6-(3-(3-((1-phenylcyclopropyl)amino)propanoyl)-3,8-diazabicyclo[3.2.1]octan-8-yl)nicotinonitrile] was run?
A: 100 to 1000 nM

Q: How did the IC50 turn out when `N#Cc1ccc(N2C3CCC2CN(C(=O)COCC2(c4cccc5ncnn45)CC2)C3)nc1` [Example 232, 6-(3-(2-((1-([1,2,4]triazolo[1,5-a]pyridin-5-yl)cyclopropyl)methoxy)acetyl)-3,8-diazabicyclo[3.2.1]octan-8-yl)nicotinonitrile] was run?
A: < 10 nM

Q: With `C[C@H](OCCC(=O)N1CC2CCC(C1)N2c1ccc(C#N)cn1)c1ccccc1` [Example 305, 6-(3-(3-((S)-1-phenylethoxy)propanoyl)-3,8-diazabicyclo[3.2.1]octan-8-yl)nicotinonitrile] as the compound, how does the IC50 read?
A: 100 to 1000 nM
